Reference: patent US20260327264A1, “PEPTIDE INHIBITORS OF INTERLEUKIN-23 RECEPTOR” (Zealand Pharma A/S, priority 2023, published 2026)
*1 amine or outer side, *2 acyl side, *3 side chain or, on linkers, in order; H or OH if unused. Where a SMILES comes first, the peptide text is derived from it. Bridges are numbered along the chain shown (N, C = ends). [ ]: non-standard residue; d: D form. 2Nal = N[C@@H](Cc1ccc2ccccc2c1)C(=O)O; AEF = NCCOc1ccc(C[C@H](N)C(=O)O)cc1; X1 = O=C(Cc1ccc(CN[*:1])cc1)[*:2]; 3Pal = N[C@@H](Cc1cccnc1)C(=O)O; αMeL = CC(C)C[C@](C)(N)C(=O)O; CH2COCH2 = O=C(C[*:1])C[*:2]; 3Amb = NCc1cccc(C(=O)O)c1; NMeA = CN[C@@H](C)C(=O)O; Dab = NCC[C@H](N)C(=O)O; Aib = CC(C)(N)C(=O)O; βAla = NCCC(=O)O

Legend:
human IL-23R = molecular target: T1, human IL-23R (Homo sapiens, UniProt Q5VWK5); test: Binding assay: displacement of fluorophore (TAMRA)-labelled reference compound from human IL-23R (BRET, Nluc-IL23R fusion protein membranes); settings: for Emax: read-out: % displacement (hIL-23R binding)
T1 construct: Nanoluc luciferase (Nluc); secretion signal encoded by the plasmid (not specified); expressed in transfected cells; crude membranes used in the assay
T1 sequence (Q5VWK5 22-629): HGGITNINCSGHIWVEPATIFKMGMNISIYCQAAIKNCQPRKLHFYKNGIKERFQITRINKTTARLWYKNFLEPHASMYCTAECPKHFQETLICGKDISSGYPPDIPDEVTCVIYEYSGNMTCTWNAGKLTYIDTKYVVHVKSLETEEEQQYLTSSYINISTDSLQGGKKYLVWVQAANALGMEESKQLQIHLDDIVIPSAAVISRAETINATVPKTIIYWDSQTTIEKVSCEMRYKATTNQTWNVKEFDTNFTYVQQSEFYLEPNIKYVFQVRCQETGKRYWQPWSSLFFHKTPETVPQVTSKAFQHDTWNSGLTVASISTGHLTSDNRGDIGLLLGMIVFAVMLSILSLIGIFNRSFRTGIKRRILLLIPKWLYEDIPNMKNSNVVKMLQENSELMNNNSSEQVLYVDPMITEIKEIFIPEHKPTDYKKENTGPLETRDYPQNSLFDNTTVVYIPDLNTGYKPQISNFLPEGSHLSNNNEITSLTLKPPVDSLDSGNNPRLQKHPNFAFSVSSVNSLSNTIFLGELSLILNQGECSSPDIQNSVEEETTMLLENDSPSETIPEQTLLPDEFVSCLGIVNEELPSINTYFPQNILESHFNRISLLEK

[1] = system: IL-23 mediated STAT3 signalling (DB cells); test: Functional inhibition of IL-23 mediated STAT3 signalling (phospho-STAT3 Tyr705) in DB cells; type: cell-based, human; settings: for IC50: Table 3-2, EC80 of hIL-23, read-out: hIL-23 (pSTAT3) antagonist IC50; for hIL-23 (pSTAT3) antagonist % inhibition: Table 3-2, maximal inhibitory response, EC80 of hIL-23
From the text: Upon binding of IL-23, the IL-23R forms a heterodimer signalling complex together with IL-12R β1, which through the JAK2/STAT3 pathway promotes phosphorylation of STAT3 to form phospho-STAT3.
For compounds tested in this assay, the response was normalized relative to control values to calculate the IC50 and maximal inhibitory response from a concentration response curve of the compound in presence of a fixed concentration of human IL-23.
The assay procedure was as follows. […] Following preincubation of the DB cells with inhibitor for 15 min in a cell incubator (37° C., 5% CO2), 20 μL of the prepared 3× the EC80 of hIL-23 solution was added to each well and incubated for 90 min in a cell incubator (37° C., 5% CO2). For some wells buffer only or IL-23 only corresponding to the EC80 was added to obtain readouts needed for normalization. To terminate the assay, the plate was spun at 1000 G for 5 min to pellet cells, the supernatant removed using an 8-channel manual pipette, and then added 50 μL/well Complete Lysis Buffer from the MSD STAT3 kit (Cat #K150SVD, Mesoscale) to the cell pellet. To completely lyse cells to release phospho-STAT3 for detection, the plate was shaken for 10 min at room temperature (500 rpm) sealed with aluminium foil and placed at −80° C. for a minimum of 15 min. Detection of the phospho-STAT3 level in the cell lysate from the individual wells was determined using the MSD STAT3 kit (Cat #K150SVD, Mesoscale) and read on a Meso QuickPlex SQ 120 plate reader (Mesoscale).
For data analysis raw data counts from the Meso QuickPlex SQ 120 plate reader were normalized relative to the response by the EC80 of hIL-23 alone (no compound added) and the buffer level.

Emax (human IL-23R) [%] | IC50 [1] [nM] | IC50 (human IL-23R) [nM] | Structure (SMILES) | hIL-23 (pSTAT3) antagonist % inhibition [1] [%]
105 |  |  | CC(C)C[C@]1(C)NC(=O)[C@H](Cc2ccc3ccccc3c2)NC(=O)[C@H](Cc2ccc(OCCN)cc2)NC(=O)[C@@H]2CSCC(=O)CSC[C@H](NC(=O)[C@H](CO)NC(=O)[C@H](Cc3cccnc3)NC(=O)CCNC(=O)CC[C@@H](C(=O)N[C@H](CCCNC(=N)N)C(N)=O)NC1=O)C(=O)N[C@@H](Cc1c[nH]c3ccccc13)C(=O)N[C@@H](CCC(N)=O)C(=O)N2 [Compound 1, [3-Aminopropanoyl](4c)*[3-(3-Pyridyl)-Ala]SC(2a)WQC(2a)[Y(2-aminoethoxy)][2-Nal][2-Me-Leu]E(4c)[{d}R]-[NH2]] ([βAla][3Pal]SCWQC[AEF][2Nal][αMeL]E[dR]-NH2; linker 4-7 via CH2COCH2; lactam N-11) | 
103 |  |  | CC(C)C[C@]1(C)NC(=O)[C@H](Cc2ccc3ccccc3c2)NC(=O)[C@H](Cc2ccc(OCCN)cc2)NC(=O)[C@@H]2CSCC(=O)CSC[C@H](NC(=O)[C@H](CO)NC(=O)CCNC(=O)[C@H](Cc3cccnc3)NC(=O)CC[C@@H](C(=O)N[C@H](CCCNC(=N)N)C(N)=O)NC1=O)C(=O)N[C@@H](Cc1c[nH]c3ccccc13)C(=O)N[C@@H](CCC(N)=O)C(=O)N2 [Compound 2, [3-(3-Pyridyl)-Ala](4c)*[3-Aminopropanoy]SC(2a)WQC(2a)[Y(2-aminoethoxy)][2-Nal][2-Me-Leu]E(4c)[{d}R]-[NH2]] ([3Pal][βAla]SCWQC[AEF][2Nal][αMeL]E[dR]-NH2; linker 4-7 via CH2COCH2; lactam N-11) | 
98 |  | 1.2 | CC(C)C[C@]1(C)NC(=O)[C@H](Cc2ccc3ccccc3c2)NC(=O)[C@H](Cc2ccc(OCCN)cc2)NC(=O)[C@@H]2CCNC(=O)CC[C@H](NC(=O)[C@H](CO)NC(=O)Cc3ccc(cc3)CNC(=O)CC[C@@H](C(=O)NC[C@H](N[C@@H](Cc3cccnc3)C(N)=O)C(F)(F)F)NC1=O)C(=O)N[C@@H](Cc1c[nH]c3ccccc13)C(=O)N[C@@H](CCC(N)=O)C(=O)N2 [Compound 17, [4-Aminomethyl-phenylacetyl](1c)*SE(2c)WQ[Dab](2c)[Y(2-aminoethoxy)][2-Nal][2-Me-Leu]E(1c)[Gly-CF3][3-(3-Pyridyl)-Ala]-[NH2]] | 
 | 0.13 |  | CC(C)C[C@]1(C)NC(=O)[C@H](Cc2ccc3ccccc3c2)NC(=O)[C@H](Cc2ccc(OCCN)cc2)NC(=O)[C@@H]2CSCC(=O)CSC[C@H](NC(=O)[C@H](CO)NC(=O)c3cccc(c3)CNC(=O)CC[C@@H](C(=O)N[C@@H](CCCNC(=N)N)C(=O)N[C@@H](Cc3cccnc3)C(N)=O)NC1=O)C(=O)N[C@@H](Cc1c[nH]c3ccccc13)C(=O)N[C@@H](CCC(N)=O)C(=O)N2 [Ref 78, [(3-Aminomethyl)benzoyl](1c)*SC(2a)WQC(2a)[Y(2-aminoethoxy)][2-Nal][2-Me-Leu]E(1c)R[3-(3-Pyridyl)-Ala]-[NH2], reference compound] ([3Amb]SCWQC[AEF][2Nal][αMeL]ER[3Pal]-NH2; linker 3-6 via CH2COCH2; lactam N-10) | 100
 | 11 |  | CC(C)C[C@]1(C)NC(=O)[C@H](Cc2ccc3ccccc3c2)NC(=O)[C@H](Cc2ccc(OCCN)cc2)NC(=O)[C@@H]2CSCC(=O)CSC[C@H](NC(=O)[C@H](CO)NC(=O)Cc3ccc(cc3)CNC(=O)CC[C@@H](C(=O)N[C@H](CCCNC(=N)N)C(N)=O)NC1=O)C(=O)N[C@@H](Cc1c[nH]c3ccccc13)C(=O)N[C@@H](CCC(N)=O)C(=O)N2 [Ref 80, [4-Aminomethyl-phenylacetyl](1c)*SC(2a)WQC(2a)[Y(2-aminoethoxy)][2-Nal][2-Me-Leu]E(1c)[{d}R]-[NH2], reference compound] ([X1]SCWQC[AEF][2Nal][αMeL]E[dR]-NH2; linker 3-6 via CH2COCH2; lactam N-10) | 97

Second part, the molecule before the results:

Structure (SMILES) | Emax (human IL-23R) [%] | IC50 [1] [nM] | IC50 (human IL-23R) [nM] | hIL-23 (pSTAT3) antagonist % inhibition [1] [%]
CC(C)C[C@]1(C)NC(=O)[C@H](Cc2ccc3ccccc3c2)NC(=O)[C@H](Cc2ccc(OCCN)cc2)NC(=O)[C@@H]2CCNC(=O)CC[C@H](NC(=O)[C@H](CO)NC(=O)Cc3ccc(cc3)CNC(=O)CC[C@@H](C(=O)NC[C@@H](N[C@@H](Cc3cccnc3)C(N)=O)C(F)(F)F)NC1=O)C(=O)N[C@@H](Cc1c[nH]c3ccccc13)C(=O)N[C@@H](CCC(N)=O)C(=O)N2 [Compound 16, [4-Aminomethyl-phenylacetyl](1c)*SE(2c)WQ[Dab](2c)[Y(2-aminoethoxy)][2-Nal][2-Me-Leu]E(1c)[{d}Gly-CF3][3-(3-Pyridyl)-Ala]-[NH2]] |  | 1.4 |  | 97
CNC(=O)[C@H](Cc1cccnc1)NC(=O)[C@H](CCN)NC(=O)[C@@H]1CCC(=O)NCc2ccc(cc2)CC(=O)N[C@@H](C)C(=O)N[C@H]2CCC(=O)NCC[C@H](NC(=O)[C@H](CCC(N)=O)NC(=O)[C@H](Cc3c[nH]c4ccccc34)NC2=O)C(=O)N[C@@H](Cc2ccc(OCCN)cc2)C(=O)N[C@@H](CC2CC2)C(=O)NC(C)(C)C(=O)N1 [Compound 42, [4-Aminomethyl-phenylacetyl](1c)*AE(2c)WQ[Dab](2c)[Y(2-aminoethoxy)][Cyclopropyl-Ala][Aib]E(1c)[Dab][3-(3-Pyridyl)-Ala]-[NHMe]] | 100 |  | 12 | 
CNC(=O)[C@H](Cc1cccnc1)NC(=O)[C@H](CCN)NC(=O)[C@@H]1CCC(=O)NCc2ccc(cc2)CC(=O)N[C@@H](C)C(=O)N[C@H]2CCC(=O)NCC[C@H](NC(=O)[C@H](CCC(N)=O)NC(=O)[C@H](Cc3c[nH]c4ccccc34)NC2=O)C(=O)N[C@@H](Cc2c[nH]c3ccccc23)CC(=O)N[C@@H](Cc2ccc3ccccc3c2)C(=O)NC(C)(C)C(=O)N1 [Compound 45, [4-Aminomethyl-phenylacetyl](1c)*AE(2c)WQ[Dab](2c)[beta-hTrp][2-Nal][Aib]E(1c)[Dab][3-(3-Pyridyl)-Ala]-[NHMe]] | 104 |  |  | 
CNC(=O)[C@H](Cc1cccnc1)NC(=O)[C@H](CCN)NC(=O)[C@@H]1CCC(=O)NCc2ccc(cc2)CC(=O)N(C)[C@@H](C)C(=O)N[C@H]2CCC(=O)NCC[C@H](NC(=O)[C@H](CCC(N)=O)NC(=O)[C@H](Cc3c[nH]c4ccccc34)NC2=O)C(=O)N[C@@H](Cc2ccc(OCCN)cc2)C(=O)N[C@@H](Cc2ccc3ccccc3c2)C(=O)NC(C)(C)C(=O)N1 [Compound 48, [4-aminomethyl-phenylacetyl(1c)*][N—Me-Ala]E(2c)WQ[Dab](2c)[Y(2-aminoethoxy)][2Nal][Aib]E(1c)[Dab][3-(3-Pyridyl)-alanyl]-[NHMe]] ([X1][NMeA]EWQ[Dab][AEF][2Nal][Aib]E[Dab][3Pal]-NHMe; lactam 3-6, N-10) | 96 |  | 0.01 | 
CC(=O)N[C@@H](CC(=O)O)C(=O)N[C@H]1CCC(=O)NCCCC[C@@H](C(=O)N[C@@H](CCCNC(=N)N)C(N)=O)NC(=O)[C@H](CC(C)C)NC(=O)[C@H](Cc2ccc3ccccc3c2)NC(=O)[C@H](Cc2c[nH]c3ccccc23)NC(=O)[C@@H]2CSCC(=O)CSC[C@H](NC(=O)[C@H](CO)NC1=O)C(=O)N[C@@H](Cc1c[nH]c3ccccc13)C(=O)N[C@@H](CCC(N)=O)C(=O)N2 [Ref 17, [Ac]-DE(1c)SC(2a)WQC(2a)W[2-Nal]LK(1c)R-[NH2], reference compound] |  | 370 |  | 
